# Assay results: US5480969A, “Antagonists of LHRH” (The Administrators of the Tulane Educational Fund, priority 1992, dated 1996)
# Values joined by “and” are separate entries in the source; they are usually repeats but may differ in a detail not shown here. Equal entries are not always repeated. Where two headings read alike, the source gives them in different places. Starred links: 1 amine or outer side, 2 acyl side, 3 side chain; linkers in the order of their positions; H or OH if unused. Non-standard residues stand in square brackets, D forms with d. Residues, ends and D or L forms follow the SMILES beside them. *: point of attachment. dAla(cis-4-NHCOPyz-cHex) = N[C@H](C[C@H]1CC[C@@H](NC(=O)c2cnccn2)CC1)C(=O)O; X2 = O=C(N[C@H]1CC[C@@H](C[C@H](N[*:1])C(=O)[*:2])CC1)c1cnccn1; d(hArg(Et2)) = CCN=C(NCC)NCCCC[C@@H](N)C(=O)O; X1 = O=C([C@@H](Cc1cnc2ccccc2c1)N[*:1])[*:2]; Ala(2-pyrazinyl) = N[C@@H](Cc1cnccn1)C(=O)O; hArg(Et2) = CCN=C(NCC)NCCCC[C@H](N)C(=O)O; dPhe(4-Cl) = N[C@H](Cc1ccc(Cl)cc1)C(=O)O; X3 = O=C([C@@H](Cc1cnccn1)N[*:1])[*:2]; d2Nal = N[C@H](Cc1ccc2ccccc2c1)C(=O)O; Lys(iPr) = CC(C)NCCCC[C@H](N)C(=O)O; d3Pal = N[C@H](Cc1cccnc1)C(=O)O; Cit = NC(=O)NCCC[C@H](N)C(=O)O; Picolinoyl = O=C(c1ccccn1)*; Abu = CC[C@H](N)C(=O)O
# Tests used:
# [1] = Wheal area per 10 μg of analog; type: in vivo
# Experimental: (§1) AOA in rats was determined as reported [Humphries et al.]. The wheal area/10 μg of analog was calculated as described [Ljungqvist et al. 1987]. The histamine release was assayed in rat mast cells as reported [Hook et al., Karten et al. 1987]. […] The biological data are in Table III.
# [2] = tested on: rat mast cells; experiment: In vitro histamine release in rat mast cells; type: cell-based
# Experimental: as §1
# (§2) The AOA was determined in rats as reported [Humphries et al.]. […] The data from the determinations of AOA and ED50 are in Table IV.
# (§3) The AOA was determined in rats, as reported (13).
# [3] = tested on: rats; conditions: cited from earlier work; for dose giving AOA of 100% (AOA100): background, literature antagonists; for AOA %/μg 0.25: 0.25 μg
# [4] = tested on: rat mast cells; conditions: cited from earlier work; for Histamine release ED50: Table V
# [5] = tested on: testosterone secretion; conditions: male monkeys; single dose; cited from earlier work
# [6] = Table III parent analogs from literature; cited from earlier work
# [7] = tested on: gonadotropin secretion; conditions: overectomized monkeys; single or multiple doses; cited from earlier work
# [8] = tested on: rats; experiment: Antiovulatory activity (AOA) in rats; type: in vivo, rat; conditions: Table IV / Example 2
# Experimental: as §1, §2, §3
# The very large number of bioassays which are required for a very large number of samples necessitate a minimal number of animals for the initial bioassays. In these initial bioassays, relatively small differences in potencies, expressed as percent AOA, may be "semi-quantitative," but even such small initial differences may reveal valid trends of potency for structural interpretation and new designs.
# Bioassays are repeated as many times as required for quantitative data. […] The initial bioassay of Antide showing 63% at 0.125 μg and 89% at 0.25 μg was on the first sample of […]. The following three bioassays were on a resynthesized sample. However, both samples fulfilled all criteria for purity.
molecule,measurement,setting,value
CC(=O)N[C@H](Cc1cnc2ccccc2c1)C(=O)N[C@H](Cc1ccc(Cl)cc1)C(=O)N[C@H](Cc1cccnc1)C(=O)N[C@@H](CO)C(=O)N[C@@H](CCCCNC(=O)c1ccccn1)C(=O)NC1CCN(C(CC(C)C)C(=O)N[C@@H](CCCCNC(C)C)C(=O)N2CCC[C@H]2C(=O)N[C@H](C)C(N)=O)C1=O (stereo partly shown) [compound 22],Wheal area,[1]; Table III / Example 1,89.5 ± 5.5 mm^2 /10 μg
"CC(=O)N[C@H](Cc1cnc2ccccc2c1)C(=O)N[C@H](Cc1ccc(Cl)cc1)C(=O)N[C@H](Cc1cccnc1)C(=O)N[C@@H](CO)C(=O)N[C@@H](CCCNC(N)=O)C(=O)N[C@H](CCCCNC(=O)c1ccccn1)C(=O)N[C@@H](CC(C)C)C(=O)N[C@@H](CCCNC(=N)N)C(=O)N1CCC[C@H]1C(=O)N[C@H](C)C(N)=O [Analog 6 (Table VI), [Cit^5]-Argtide] (Ac-[X1][dPhe(4-Cl)][d3Pal]S[Cit][dK](Picolinoyl)LRP[dA]-NH2)",ED50 histamine release,[2],94 µg/mL
CC[C@H](NC(=O)[C@@H](CCCCNC(=O)c1ccccn1)NC(=O)[C@H](CCCCNC(=O)c1ccccn1)NC(=O)[C@H](CO)NC(=O)[C@@H](Cc1cccnc1)NC(=O)[C@@H](Cc1ccc(Cl)cc1)NC(=O)[C@@H](Cc1cnc2ccccc2c1)NC(C)=O)C(=O)N[C@@H](CCCCNC(C)C)C(=O)N1CCC[C@H]1C(=O)N[C@H](C)C(N)=O [compound 20] (Ac-[X1][dPhe(4-Cl)][d3Pal]SK(Picolinoyl)[dK](Picolinoyl)[Abu][Lys(iPr)]P[dA]-NH2),Wheal area,[1]; Table III / Example 1,103.9 ± 3.7 mm^2 /10 μg
"[N-Ac-D-2-Nal^1 ; D-pClPhe^2, D-Trp^3, D-Arg^6, D-Ala^10 ] LHRH",dose giving AOA of 100% (AOA100),[3],ca. 0.5 μg/rat
CC(=O)N[C@H](Cc1ccc2ccccc2c1)C(=O)N[C@H](Cc1ccc(Cl)cc1)C(=O)N[C@H](Cc1cccnc1)C(=O)N[C@@H](CO)C(=O)N[C@@H](CCCCNC(=O)c1ccccn1)C(=O)NC1CCN(C(CC(C)C)C(=O)N[C@@H](CCCCNC(C)C)C(=O)N2CCC[C@H]2C(=O)N[C@H](C)C(N)=O)C1=O (stereo partly shown) [compound 21],Wheal area,[1]; Table III / Example 1,99.5 ± 4.5 mm^2 /10 μg
"CC(=O)N[C@H](Cc1ccc2ccccc2c1)C(=O)N[C@H](Cc1ccc(Cl)cc1)C(=O)N[C@H](Cc1cccnc1)C(=O)N[C@@H](CO)C(=O)N[C@@H](CCCCNC(=O)c1ccccn1)C(=O)N[C@H](CCCCNC(=O)[C@H](N)CO)C(=O)N[C@@H](CC(C)C)C(=O)N[C@@H](CCCCNC(C)C)C(=O)N1CCC[C@H]1C(=O)N[C@H](C)C(N)=O [Analog 7 (Table III), [N-Ac-D-Nal^1,D-pClPhe^2,D-3-Pal^3,PicLys^5,D-(DSer)Lys.sup .6,ILys^8,D-Ala^10]-LHRH] (Ac-[d2Nal][dPhe(4-Cl)][d3Pal]SK(Picolinoyl)[dK](dS)L[Lys(iPr)]P[dA]-NH2)",Wheal area,"[1]; Table III / Example 1, listed as 7",103.9 ± 5.2 mm^2 /10 μg and 103.9 mm^2 /10 μg
"CCN=C(NCC)NCCCC[C@H](NC(=O)[C@H](CC(C)C)NC(=O)[C@@H](CCCCNC(=NCC)NCC)NC(=O)[C@H](Cc1ccc(O)cc1)NC(=O)[C@H](CO)NC(=O)[C@@H](Cc1cccnc1)NC(=O)[C@@H](Cc1ccc(Cl)cc1)NC(=O)[C@@H](Cc1ccc2ccccc2c1)NC(C)=O)C(=O)N1CCC[C@H]1C(=O)N[C@H](C)C(N)=O [RS-26306, [N-Ac-D-2-Nal^1, D-pClPhe^2, D-3-Pal^3, D-hArg(Et2)^6, hArg(Et)2^8, D-Ala^10] LHRH] (Ac-[d2Nal][dPhe(4-Cl)][d3Pal]SY[d(hArg(Et2))]L[hArg(Et2)]P[dA]-NH2)",Histamine release ED50,[4],13 µg/mL
CC(=O)N[C@H](Cc1ccc2ccccc2c1)C(=O)N[C@H](Cc1ccc(Cl)cc1)C(=O)N[C@H](Cc1cccnc1)C(=O)N[C@@H](CO)C(=O)N[C@@H](CCCCNC(=O)c1ccccn1)C(=O)N[C@H](CCCCNC(=O)[C@H](N)CO)C(=O)N[C@@H](CC(C)C)C(=O)N[C@@H](CCCCNC(C)C)C(=O)N1CCC[C@H]1C(=O)N[C@H](C)C(N)=O (Ac-[d2Nal][dPhe(4-Cl)][d3Pal]SK(Picolinoyl)[dK](dS)L[Lys(iPr)]P[dA]-NH2),ED50 for hist. release,[2],18 µg/mL
"[N-Ac-D-2-Nal^1, D-pClPhe^2, D-3-Pal^3, NicLys^5, D-NicLys^6, Ilys^8, D-Ala^10 ] LHRH [Antide]",suppression of testosterone secretion,[5],long-term suppression
same,"column 1.0 (AOA, head not given)","[3]; Table V, column 1.0",100
same,dose giving AOA of 100% (AOA100),[3],1 μg/rat
same,AOA %/μg 0.25,"[3]; rats, Table III parent analogs from literature",inactive
same,AOA %/μg 0.5,"[3]; rats, 0.5 μg, Table III parent analogs from literature",36%
same,Wheal area,[6],132.7 mm^2 /10 μg
same,ED50 for hist. release,[4]; Table III parent analogs from literature,300 µg/mL
same,Histamine release ED50,[4],> 300 µg/mL
same,ED50 for histamine release,[4]; background,300 µg/mL
same,histamine release (in words),[4]; background,negligible
same,inhibition of gonadotropin secretion,[7],Prolonged duration of inhibition
"N-Ac-D-3-Qal, D-pClPhe, D-3-Pal, Ser, c-PzACAla, D-PicLys, Leu, Arg, Pro, D-AlaNH2 [Argtide]","column 0.125 (AOA, head not given)","[3]; Table V comparison of leading antagonists, column 0.125",63
same,AOA %/μg 0.25,"[3]; rats, Table VI / Example 3 text, from Janecka et al.",88%
same,% AOA/μg dosage 0.125,[8]; 0.125 μg,63%
same,% AOA/μg dosage 0.25,[8]; 0.25 μg,89%
same,Histamine release ED50,[4],31 µg/mL
same,ED50 histamine release,"[4]; Table VI / Example 3 text, from Janecka et al.",31 µg/mL
same,ED50 histamine release,[2],30.8 ± 0.59 µg/mL
CC(=O)N[C@H](Cc1ccc2ccccc2c1)C(=O)N[C@H](Cc1ccc(Cl)cc1)C(=O)N[C@H](Cc1cccnc1)C(=O)N[C@@H](CO)C(=O)N[C@@H](C[C@H]1CC[C@@H](NC(=O)c2cnccn2)CC1)C(=O)N[C@H](Cc1cnccn1)C(=O)N[C@@H](CC(C)C)C(=O)N[C@@H](CCCCNC(C)C)C(=O)N1CCC[C@H]1C(=O)N[C@H](C)C(N)=O (Ac-[d2Nal][dPhe(4-Cl)][d3Pal]S[X2][X3]L[Lys(iPr)]P[dA]-NH2),ED50 for hist. release,[2],88 ± 6.4 µg/mL
"[D-Phe^2, Pro^3, DTrp^6 ] LHRH",dose giving AOA of 100% (AOA100),[3],750 μg/rat
"[N-Ac-D-2-Nal^1, DpClPhe^2, D-Trp^3, D-Cit^6, D-Ala^10 ] LHRH",dose giving AOA of 100% (AOA100),[3],3 μg/rat
"CC(=O)N[C@H](Cc1cnc2ccccc2c1)C(=O)N[C@H](Cc1ccc(Cl)cc1)C(=O)N[C@H](Cc1cccnc1)C(=O)N[C@@H](CO)C(=O)N[C@@H](C[C@H]1CC[C@@H](NC(=O)c2cnccn2)CC1)C(=O)N[C@H](CCCCNC(=O)c1ccccn1)C(=O)N[C@@H](CC(C)C)C(=O)N[C@@H](CCCCNC(C)C)C(=O)N1CCC[C@H]1C(=O)N[C@H](C)C(N)=O [Analog 11 (Table III), [N-Ac-D-3-Qal^1, D-pClPhe^2, D-3-Pal^3, c-PzACAla^5, D-PicLys^6, ILys^8, D-Ala^10] LHRH] (Ac-[X1][dPhe(4-Cl)][d3Pal]S[X2][dK](Picolinoyl)L[Lys(iPr)]P[dA]-NH2)",ED50 for hist. release,[2],171 ± 17 µg/mL
CC(=O)N[C@H](Cc1ccc2ccccc2c1)C(=O)N[C@H](Cc1ccc(Cl)cc1)C(=O)N[C@H](Cc1cccnc1)C(=O)N[C@@H](CO)C(=O)N[C@@H](Cc1cnccn1)C(=O)N[C@H](C[C@H]1CC[C@@H](NC(=O)c2cnccn2)CC1)C(=O)N[C@@H](CC(C)C)C(=O)N[C@@H](CCCCNC(C)C)C(=O)N1CCC[C@H]1C(=O)N[C@H](C)C(N)=O [compound 18] (Ac-[d2Nal][dPhe(4-Cl)][d3Pal]S[Ala(2-pyrazinyl)][dAla(cis-4-NHCOPyz-cHex)]L[Lys(iPr)]P[dA]-NH2),ED50 for hist. release,"[2]; concentration releasing 50% of total releasable histamine, Table III / Example 1",28 ± 4.7 µg/mL
same,Wheal area,[1]; Table III / Example 1,101.6 ± 2.2 mm^2 /10 μg
"[N-Ac-D-2-Nal^1, D-pClPhe^2, D-3-Pal^3, Arg^5, D-Glu(AA)^6, D-Ala^10 ] LHRH [Nal-Glu]","column 1.5 (AOA, head not given)","[3]; Table V, column 1.5",100
"[N-Ac-D-2-Nal^1, D-pClPhe^2, D-3-Pal^3, D-Arg^6, Trp^7, D-Ala^10 ] LHRH",dose giving AOA of 100% (AOA100),[3],ca. 0.5 μg/rat
